Assay results reported in patent US11319299B2, “Substituted carboxamides as inhibitors of WDR5 protein-protein binding” (PROPELLON THERAPEUTICS INC., priority 2016, dated 2022).
pKd: −log10 of the molar value.

What follows are compounds tested against WDR5 (Homo sapiens (Human), UniProt P61964) (assay: Surface Plasmon Resonance (SPR) assay, KD and residence time). Conditions: surface plasmon resonance (SPR) assay; read-out: WDR5 binding affinity (KD).
Type: binding

Row | Structure (SMILES) | pKd
1 | CCCN(C)C1CCN(c2cc(F)c(-c3cnc(N4CCOCC4)nc3)cc2NC(=O)c2c[nH]c(=O)cc2C(F)(F)F)C1 (stereo not drawn) [Example 303, N-[4-fluoro-2-[3-[methyl(propyl)amino]pyrrolidin-1-yl]-5-(2-morpholin-4-ylpyrimidin-5-yl)phenyl]-6-oxo-4-(trifluoromethyl)-1H-pyridine-3-carboxamide] | 8.77
2 | C[C@@H]1CN(c2cc(F)c(C3=CCN(C(=O)CN(C)C)CC3)cc2NC(=O)c2c[nH]c(=O)cc2C(F)(F)F)C[C@H](C)N1C [Example 305, N-[5-[1-[2-(dimethylamino)acetyl]-3,6-dihydro-2H-pyridin-4-yl]-4-fluoro-2-[(3R,5S)-3,4,5-trimethylpiperazin-1-yl]phenyl]-6-oxo-4-(trifluoromethyl)-1H-pyridine-3-carboxamide] | 8.58
3 | C[C@@H]1CN(c2cc(F)c(-c3cnc(N4CCN(C(=O)CCC(=O)O)CC4)nc3)cc2NC(=O)c2c[nH]c(=O)cc2C(F)(F)F)C[C@H](C)N1C [Example 306, 4-[4-[5-[2-fluoro-5-[[6-oxo-4-(trifluoromethyl)-1H-pyridine-3-carbonyl]amino]-4-[(3R,5S)-3,4,5-trimethylpiperazin-1-yl]phenyl]pyrimidin-2-yl]piperazin-1-yl]-4-oxobutanoic acid] | 9.10
4 | C[C@@H]1CN(c2cc(F)c(C3=CCN(C(=O)OC(C)(C)C)CC3)cc2NC(=O)c2cn(C)c(=O)cc2C(F)(F)F)C[C@H](C)N1C [Example 313, tert-butyl 4-[2-fluoro-5-[[-methyl-6-oxo-4-(trifluoromethyl)pyridine-3-carbonyl]amino]-4-[(3R,5S)-3,4,5-trimethylpiperazin-1-yl]phenyl]-3,6-dihydro-2H-pyridine-1-carboxylate] | 8.51
5 | C[C@@H]1CN(c2cc(F)c(-c3ccc(OCC4CC4)nc3)cc2NC(=O)c2c[nH]c(=O)cc2C(F)F)C[C@H](C)N1C [Example 314, N-[5-[6-(cyclopropylmethoxy)pyridin-3-yl]-4-fluoro-2-[(3R,5S)-3,4,5-trimethylpiperazin-1-yl]phenyl]-4-(difluoromethyl)-6-oxo-1H-pyridine-3-carboxamide] | 8.78
6 | CCn1cc(C(=O)Nc2cc(-c3cnc(N4CCOCC4)nc3)c(F)cc2N2C[C@@H](C)N(C)[C@@H](C)C2)c(C(F)(F)F)cc1=O [Example 315, 1-ethyl-N-[4-fluoro-5-(2-morpholin-4-ylpyrimidin-5-yl)-2-[(3R,5S)-3,4,5-trimethylpiperazin-1-yl]phenyl]-6-oxo-4-(trifluoromethyl)pyridine-3-carboxamide] | 8.07
7 | C[C@@H]1CN(c2cc(F)c(-c3cnc(N4CC(C)(C)OC(C)(C)C4)nc3)cc2NC(=O)c2c[nH]c(=O)cc2C(F)(F)F)C[C@H](C)N1C [Example 320, N-[4-fluoro-2-[(3R,5S)-3,4,5-trimethylpiperazin-1-yl]-5-[2-(2,2,6,6-tetramethylmorpholin-4-yl)pyrimidin-5-yl]phenyl]-6-oxo-4-(trifluoromethyl)-1H-pyridine-3-carboxamide] | 9.14
8 | C[C@@H]1CN(c2cc(F)c(-c3cnc(N4CCOCC4)nc3)cc2NC(=O)c2cc(C(F)(F)F)[nH]n2)C[C@H](C)N1C [Example 321, N-[4-fluoro-5-(2-morpholin-4-ylpyrimidin-5-yl)-2-[(3R,5S)-3,4,5-trimethylpiperazin-1-yl]phenyl]-5-(trifluoromethyl)-1H-pyrazole-3-carboxamide] | 7.20
9 | C[C@@H]1CN(c2cc(F)c(C3=CCCN(C(=O)OC(C)(C)C)C3)cc2NC(=O)c2c[nH]c(=O)cc2C(F)(F)F)C[C@H](C)N1C [Example 322, tert-butyl 5-[2-fluoro-5-[[6-oxo-4-(trifluoromethyl)-1H-pyridine-3-carbonyl]amino]-4-[(3R,5S)-3,4,5-trimethylpiperazin-1-yl]phenyl]-3,6-dihydro-2H-pyridine-1-carboxylate] | 8.87
10 | C[C@@H]1CN(c2cc(F)c(C3=CCN(C(=O)OC(C)(C)C)C3)cc2NC(=O)c2c[nH]c(=O)cc2C(F)(F)F)C[C@H](C)N1C [Example 323, tert-butyl 3-[2-fluoro-5-[[6-oxo-4-(trifluoromethyl)-1H-pyridine-3-carbonyl]amino]-4-[(3R,5S)-3,4,5-trimethylpiperazin-1-yl]phenyl]-2,5-dihydropyrrole-1-carboxylate] | 8.61
11 | C[C@@H]1CN(c2cc(F)c(C3=CCCN(C(=O)OC(C)(C)C)C3)cc2NC(=O)c2cn(C)c(=O)cc2C(F)(F)F)C[C@H](C)N1C [Example 325, tert-butyl 5-[2-fluoro-5-[[-methyl-6-oxo-4-(trifluoromethyl)pyridine-3-carbonyl]amino]-4-[(3R,5S)-3,4,5-trimethylpiperazin-1-yl]phenyl]-3,6-dihydro-2H-pyridine-1-carboxylate] | 8.14
12 | C[C@@H]1CN(c2cc(F)c(C3=CCN(C(=O)OC(C)(C)C)C3)cc2NC(=O)c2cn(C)c(=O)cc2C(F)(F)F)C[C@H](C)N1C [Example 326, tert-butyl 3-[2-fluoro-5-[[-methyl-6-oxo-4-(trifluoromethyl)pyridine-3-carbonyl]amino]-4-[(3R,5S)-3,4,5-trimethylpiperazin-1-yl]phenyl]-2,5-dihydropyrrole-1-carboxylate] | 8.52
13 | C[C@@H]1CN(c2cc(F)c(C3=CCNC3)cc2NC(=O)c2c[nH]c(=O)cc2C(F)(F)F)C[C@H](C)N1C [Example 329, N-[5-(2,5-dihydro-1H-pyrrol-3-yl)-4-fluoro-2-[(3R,5S)-3,4,5-trimethylpiperazin-1-yl]phenyl]-6-oxo-4-(trifluoromethyl)-1H-pyridine-3-carboxamide] | 8.39
14 | C[C@@H]1CN(c2cc(F)c(C3=CC4CCC(C3)N4)cc2NC(=O)c2c[nH]c(=O)cc2C(F)(F)F)C[C@H](C)N1C (stereo partly drawn) [Example 330, N-[5-(8-azabicyclo[3.2.1]oct-2-en-3-yl)-4-fluoro-2-[(3R,5S)-3,4,5-trimethylpiperazin-1-yl]phenyl]-6-oxo-4-(trifluoromethyl)-1H-pyridine-3-carboxamide] | 8.24
15 | C[C@@H]1CN(c2cc(F)c(C3=CCN(c4ncccn4)C3)cc2NC(=O)c2c[nH]c(=O)cc2C(F)(F)F)C[C@H](C)N1C [Example 335, N-[4-fluoro-5-(1-pyrimidin-2-yl-2,5-dihydropyrrol-3-yl)-2-[(3R,5S)-3,4,5-trimethylpiperazin-1-yl]phenyl]-6-oxo-4-(trifluoromethyl)-1H-pyridine-3-carboxamide] | 8.59
16 | C[C@@H]1CN(c2cc(F)c(C3=CC4CCC(C3)N4c3ncccn3)cc2NC(=O)c2c[nH]c(=O)cc2C(F)(F)F)C[C@H](C)N1C (stereo partly drawn) [Example 336, N-[4-fluoro-5-(8-pyrimidin-2-yl-8-azabicyclo[3.2.1]oct-2-en-3-yl)-2-[(3R,5S)-3,4,5-trimethylpiperazin-1-yl]phenyl]-6-oxo-4-(trifluoromethyl)-1H-pyridine-3-carboxamide] | 7.90
17 | C[C@@H]1CN(c2cc(F)c(C3CN=C(N4CCOCC4)NC3)cc2NC(=O)c2c[nH]c(=O)cc2C(F)(F)F)C[C@H](C)N1C (stereo partly drawn) [Example 339, N-[4-fluoro-5-(2-morpholin-4-yl-1,4,5,6-tetrahydropyrimidin-5-yl)-2-[(3R,5S)-3,4,5-trimethylpiperazin-1-yl]phenyl]-6-oxo-4-(trifluoromethyl)-1H-pyridine-3-carboxamide] | 6.56
18 | C[C@@H]1CN(c2ncc(-c3cc(NC(=O)c4c[nH]c(=O)cc4C(F)(F)F)c(N4CCN(C)[C@@H](C)C4)cc3F)cn2)CCO1 [Example 340, N-[4-fluoro-2-[(3S)-3,4-dimethylpiperazin-1-yl]-5-[2-[(2R)-2-methylmorpholin-4-yl]pyrimidin-5-yl]phenyl]-6-oxo-4-(trifluoromethyl)-1H-pyridine-3-carboxamide] | 9.26
19 | C[C@@H]1CN(c2cc(F)c(-c3cnc(N4CCOCC4)nc3)cc2NC(=O)c2cn(C)c(=O)cc2C(F)F)C[C@H](C)N1C [Example 342, 4-(difluoromethyl)-N-[4-fluoro-5-(2-morpholin-4-ylpyrimidin-5-yl)-2-[(3R,5S)-3,4,5-trimethylpiperazin-1-yl]phenyl]-1-methyl-6-oxopyridine-3-carboxamide] | 8.16
20 | CCN(C)[C@@H]1CN(c2cc(F)c(-c3cnc(N4CCOCC4)nc3)cc2NC(=O)c2c[nH]c(=O)cc2C(F)(F)F)C[C@H]1F [Example 344, N-[4-fluoro-5-(2-morpholin-4-ylpyrimidin-5-yl)-2-[(3R,4R)-3-[ethyl(methyl)amino]-4-fluoropyrrolidin-1-yl]phenyl]-6-oxo-4-(trifluoromethyl)-1H-pyridine-3-carboxamide] | 7.91
21 | CCN(C)[C@@H]1CCN(c2cc(F)c(-c3cnc(N4CCOCC4)nc3)cc2NC(=O)c2c[nH]c(=O)cc2C(F)(F)F)C1 [Example 345, N-[4-fluoro-5-(2-morpholin-4-ylpyrimidin-5-yl)-2-[(3R)-3-[ethyl(methyl)amino]pyrrolidin-1-yl]phenyl]-6-oxo-4-(trifluoromethyl)-1H-pyridine-3-carboxamide] | 8.92
22 | C[C@@H]1CN(c2cc(F)c(-c3cnc(N4CCOC(C)(C)C4)nc3)cc2NC(=O)c2c[nH]c(=O)cc2C(F)(F)F)C[C@H](C)N1C [Example 350, N-[5-[2-(2,2-dimethylmorpholin-4-yl)pyrimidin-5-yl]-4-fluoro-2-[(3R,5S)-3,4,5-trimethylpiperazin-1-yl]phenyl]-6-oxo-4-(trifluoromethyl)-1H-pyridine-3-carboxamide] | 8.85
23 | C[C@@H]1CN(c2cc(F)c(-c3cnc(N4C5CCC4CC5)nc3)cc2NC(=O)c2c[nH]c(=O)cc2C(F)(F)F)C[C@H](C)N1C [Example 352, N-[5-[2-(7-azabicyclo[2.2.1]heptan-7-yl)pyrimidin-5-yl]-4-fluoro-2-[(3R,5S)-3,4,5-trimethylpiperazin-1-yl]phenyl]-6-oxo-4-(trifluoromethyl)-1H-pyridine-3-carboxamide] | 8.56
24 | C[C@@H]1CN(c2cc(F)c(-c3cnc(N4CCOCC4)nc3)cc2NC(=O)c2ccc(F)cc2C(F)(F)F)C[C@H](C)N1 [Example 364, 4-fluoro-N-[4-fluoro-5-(2-morpholin-4-ylpyrimidin-5-yl)-2-[(3R,5S)-3,5-dimethylpiperazin-1-yl]phenyl]-2-(trifluoromethyl)benzamide] | 8.23
